Measured values taken from US20120040897A1, “NOVEL DERIVATIVES OF ACYL CYANOPYRROLIDINES” (Sun Pharma Advanced Research Company Ltd., priority 2008, published 2012).

Key:
Assay type in all cases: biochemical
[1] = target: DPP8 (Homo sapiens, UniProt Q6V1X1); assay: Percent inhibition of DPP8 activity; details: at 10000 nM concentration
Description: (§1) The following Table 39 gives percent inhibition DPP7, DPP8 & DPP9 activity, as determined for exemplary compounds of the invention

[2] = target: DPP7 (Homo sapiens, UniProt Q9UHL4); assay: Percent inhibition of DPP7 activity; details: at 10000 nM concentration
Description: as §1

[3] = target: T1, DPP IV (Rattus norvegicus, UniProt P14740); assay: Invitro DPP4 inhibition assay in rat plasma; details: substrate Gly-Pro-AMC
T1 construct: from tissue; host or cells: rat plasma
T1 sequence (P14740 37-767 limits assumed): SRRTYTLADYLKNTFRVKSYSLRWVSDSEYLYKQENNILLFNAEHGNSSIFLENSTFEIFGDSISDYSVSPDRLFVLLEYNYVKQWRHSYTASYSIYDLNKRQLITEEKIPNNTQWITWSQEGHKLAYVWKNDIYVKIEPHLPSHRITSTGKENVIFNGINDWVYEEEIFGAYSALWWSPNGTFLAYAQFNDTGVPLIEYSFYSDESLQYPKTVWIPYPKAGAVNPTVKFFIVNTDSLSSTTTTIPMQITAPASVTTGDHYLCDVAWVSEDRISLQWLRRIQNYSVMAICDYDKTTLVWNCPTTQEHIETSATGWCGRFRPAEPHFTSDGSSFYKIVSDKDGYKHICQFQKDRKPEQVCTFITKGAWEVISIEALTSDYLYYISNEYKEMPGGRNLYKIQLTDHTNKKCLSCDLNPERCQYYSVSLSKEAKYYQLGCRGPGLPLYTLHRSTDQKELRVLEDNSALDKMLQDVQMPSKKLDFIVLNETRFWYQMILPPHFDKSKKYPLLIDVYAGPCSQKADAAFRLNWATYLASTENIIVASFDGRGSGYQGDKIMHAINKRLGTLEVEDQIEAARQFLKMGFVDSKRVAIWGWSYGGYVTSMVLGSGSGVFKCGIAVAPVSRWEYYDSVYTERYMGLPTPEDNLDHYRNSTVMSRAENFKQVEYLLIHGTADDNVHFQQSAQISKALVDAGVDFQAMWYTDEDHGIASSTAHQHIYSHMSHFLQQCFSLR
Procedure: The assay system comprises of […] of rat plasma, 20 mM MgCl2 test compound, 50 uM substrate Gly-Pro-AMC & buffer (25 mM HEPES, 140 mM NaCl, 1% BSA, pH 7.8) in a total reaction volume of 100 μl. The test compound was preincubated with plasma and MgCl2 for 10 minutes at 37° C. followed by further incubation of 20 minutes after addition of substrate. The experiment was repeated using vehicle as control. The AMC (7-Amino-4-Methylcoumarin) liberated in the samples was quantified in a Multilable counter at excitation wavelength 355 nm & emission wavelength 462 nm from a standard AMC plot. The DPP4 activity in each sample was represented as pmoles of AMC released/mg/min. Plasma protein was estimated by Lowry's method.

[4] = target: DPP9 (Homo sapiens, UniProt Q86TI2); assay: Percent inhibition of DPP9 activity; details: at 10000 nM concentration
DPP9, sequence (Q86TI2 whole entry, species assumed): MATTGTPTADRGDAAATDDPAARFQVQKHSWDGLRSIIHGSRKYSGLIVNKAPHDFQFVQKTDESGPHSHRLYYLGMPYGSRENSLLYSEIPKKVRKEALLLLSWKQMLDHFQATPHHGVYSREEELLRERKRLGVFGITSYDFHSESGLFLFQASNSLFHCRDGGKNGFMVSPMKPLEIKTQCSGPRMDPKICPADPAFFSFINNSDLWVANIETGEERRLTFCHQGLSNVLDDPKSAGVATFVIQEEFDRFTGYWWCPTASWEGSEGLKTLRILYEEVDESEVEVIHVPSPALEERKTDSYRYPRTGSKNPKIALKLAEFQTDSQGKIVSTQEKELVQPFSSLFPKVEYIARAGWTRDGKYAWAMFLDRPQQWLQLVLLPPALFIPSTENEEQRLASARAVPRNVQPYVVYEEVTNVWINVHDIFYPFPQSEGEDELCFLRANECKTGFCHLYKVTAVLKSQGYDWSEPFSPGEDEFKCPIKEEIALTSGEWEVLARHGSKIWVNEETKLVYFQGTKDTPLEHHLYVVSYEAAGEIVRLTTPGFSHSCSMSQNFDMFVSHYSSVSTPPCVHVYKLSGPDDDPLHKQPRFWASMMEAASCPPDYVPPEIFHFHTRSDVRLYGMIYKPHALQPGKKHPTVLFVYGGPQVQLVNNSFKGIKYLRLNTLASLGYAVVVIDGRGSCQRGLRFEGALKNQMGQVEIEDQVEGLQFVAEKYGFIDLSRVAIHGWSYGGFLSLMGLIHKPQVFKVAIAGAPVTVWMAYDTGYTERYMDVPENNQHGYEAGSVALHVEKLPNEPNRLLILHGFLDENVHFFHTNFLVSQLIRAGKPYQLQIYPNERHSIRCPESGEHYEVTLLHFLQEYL
Description: as §1

DPP8, sequence (Q6V1X1 whole entry, species assumed): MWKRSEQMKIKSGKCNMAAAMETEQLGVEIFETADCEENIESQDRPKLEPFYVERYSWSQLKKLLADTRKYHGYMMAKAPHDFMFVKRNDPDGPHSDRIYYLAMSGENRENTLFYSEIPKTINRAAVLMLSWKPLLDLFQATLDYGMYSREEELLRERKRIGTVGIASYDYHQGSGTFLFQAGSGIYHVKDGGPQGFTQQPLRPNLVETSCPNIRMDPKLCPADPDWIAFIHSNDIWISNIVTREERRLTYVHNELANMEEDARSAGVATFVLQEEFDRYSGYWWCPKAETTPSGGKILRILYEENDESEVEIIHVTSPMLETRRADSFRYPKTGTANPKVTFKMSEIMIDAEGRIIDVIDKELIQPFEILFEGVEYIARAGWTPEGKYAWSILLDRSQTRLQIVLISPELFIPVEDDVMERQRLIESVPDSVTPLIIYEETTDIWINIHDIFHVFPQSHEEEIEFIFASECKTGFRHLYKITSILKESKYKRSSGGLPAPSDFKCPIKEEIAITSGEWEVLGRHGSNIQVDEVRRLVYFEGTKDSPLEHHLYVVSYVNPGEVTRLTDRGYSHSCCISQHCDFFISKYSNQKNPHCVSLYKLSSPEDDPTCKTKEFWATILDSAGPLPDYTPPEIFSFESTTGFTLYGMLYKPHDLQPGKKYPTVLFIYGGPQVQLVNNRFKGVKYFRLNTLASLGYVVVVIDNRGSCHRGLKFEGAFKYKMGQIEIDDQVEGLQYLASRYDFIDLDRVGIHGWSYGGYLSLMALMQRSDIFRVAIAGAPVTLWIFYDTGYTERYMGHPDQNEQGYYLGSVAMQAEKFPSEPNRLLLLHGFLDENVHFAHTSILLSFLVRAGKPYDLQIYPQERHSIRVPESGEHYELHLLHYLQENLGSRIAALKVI

Row | SMILES | inhibition at 10 µM [1] | inhibition at 10 µM [2] | IC50 [3] | inhibition at 10 µM [4]
1 | CC1(C)O[C@@H]2[C@@H](CO[C@@]3(CN4CCC(NCC(=O)N5CCC[C@H]5C#N)CC4)OC(C)(C)O[C@@H]23)O1 [Example 1, 2,3:4,5-di-O-isopropylidene-1-[piperidin-(4-aminoacetylpyrrolidine-2-(S)-carbonitrile}-1-yl]-1-deoxy-β-D-fructopyranose] | 18% | 0% | 5.98 nM | 29%
2 | CC1(NCC(=O)N2CCC[C@H]2C#N)CCN(S(=O)(=O)OC[C@H]2O[C@@H]3OC(C)(C)O[C@@H]3[C@H]3OC(C)(C)O[C@H]32)CC1 [Example 112, 1,2:3,4-di-O-isopropylidene-6-[piperidin-{(4-aminoacetylpyrrolidine-2-(S)-carbonitrile)-4-methyl-1-sulfonyl}-1-yl]-D-galactopyranose] |  |  | 18.2 nM | 
3 | CCOCCO[C@@H]1O[C@H](CN2CCC(C)(NCC(=O)N3CCC[C@H]3C#N)CC2)[C@H]2OC(C)(C)O[C@@H]12 [Example 123, 2,3-O-Isopropylidene-β-1-O-ethoxyethyl-5-[piperidin-{4-aminoacetylpyrrolidine-2-(S)-carbonitrile}(4-methyl)-1-yl]-5-deoxy-D-ribofuranose] |  |  | 14.3 nM | 
4 | CC1(NCC(=O)N2CCC[C@H]2C#N)CCN(C[C@H]2O[C@@H]3OC(C)(C)O[C@@H]3[C@H]2O)CC1 [Example 135, 1,2-O-Isopropylidene-5-[4-methylpiperidin-{4-aminoacetylpyrrolidine-2-(S)-carbonitrile}-1-yl]-5-deoxy-α-D-xylofuranose] |  |  | 22.3 nM | 
